Measured values: patent publication US6709830B2, “Methods for modulating the activation of a lymphocyte expressed G protein coupled receptor involved in cell proliferation, autoimmunity and inflammation” (The Regents of the University of California, priority 1997, dated 2004)
Entries after “also recorded” stand apart in the source; their conditions may differ. One block for each molecule: values may come before it.

Tests used:
G2A [1] = molecular target: T1, G2A (Mus musculus, UniProt Q9Z282); test: Radioligand binding assay with cell homogenates of HEK 293 G2A.GFP cells; conditions: for competition for binding of [3H] 16:0 LPC / [3H] SPC to G2A: radioligand 1 nM, unlabelled lipids 100 nM, HEK 293 G2A.GFP
T1 construct: expressed in transfected cells; host or cells: MCF 10A (human breast epithelial cells, no endogenous G2A), plasmid pEXV3 G2A.GFP
T1 sequence (Q9Z282 1-382): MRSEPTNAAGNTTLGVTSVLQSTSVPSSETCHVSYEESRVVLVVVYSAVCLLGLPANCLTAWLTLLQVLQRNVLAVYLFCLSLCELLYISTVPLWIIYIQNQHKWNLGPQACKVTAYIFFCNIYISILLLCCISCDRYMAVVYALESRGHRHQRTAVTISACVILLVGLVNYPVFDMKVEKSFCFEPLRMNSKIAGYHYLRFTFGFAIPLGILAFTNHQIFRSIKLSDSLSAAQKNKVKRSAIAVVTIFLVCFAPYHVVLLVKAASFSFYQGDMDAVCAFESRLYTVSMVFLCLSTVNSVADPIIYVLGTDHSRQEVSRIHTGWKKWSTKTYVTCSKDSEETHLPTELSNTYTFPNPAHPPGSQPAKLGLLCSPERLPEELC
Description: To characterise the binding of LPC and SPC to G2A, we performed radioligand binding assays as described previously (Xu, Y, e al, Nature Cell Biology, 2: pp261-267, 2000). [^3H] 16:0 LPC and [^3H] SPC bound to cell homogenates from G2A expressing HEK 293 cells in a time-dependent manner and reached equilibrium after 60 minutes incubation at 4° C. (FIGS. 5A and B). […] LPC and [^3H] SPC. Binding of [^3H] LPC and [^3H] […] The maximum binding capacities for LPC and SPC were approximately 1,503 fmole/10^5 cells and 1,840 fmole/10^5 cells respectively.
Binding assay HEK 293 GFP or HEK 293 G2A.GFP cells were serum starved for 20 hours and subsequently collected in PBS/EDTA. Pelleted cells were stored at −80° C. until use. Frozen cells (10^6 cells/ml) were homogenized in “binding buffer” containing 20 mM Tris-HCl pH 7.5, 100 mM NaCl, 15 mM NaF, 0.2 mM PMSF, 1 mM MgCl2 and 4 mg/ml fatty acid-free BSA in a tight-fit glass Dounce homogeniser. Assays were performed in 96-well plates in triplicate with 100 μl cell homogenate (equivalent to 10^5 cells/well). Varying amounts of [^3H] 16:0 LPC or [^3H] SPC were added to cell homogenates in 50 μl of binding buffer in the presence or absence of cold 16:0 LPC or SPC, or other competitors. Plates were incubated at 4° C. for 2 hours, or for the indicated times. Cell-bound [^3H] LPC or [^3H] SPC was collected onto a filter (Printed Filtermat A, Wallac, Gaithersburg, Md.) using an automated cell harvester (HARVESTER 96, Tomtec, Orange, Conn.). A pause wash programme (five cycle washes) was used. Filters were presoaked in 1% polyethyleneimine (Sigma) to prevent nonspecific binding, dried, sealed in bags (Sample Bag, Wallac) with 4.5 ml Betaplate “Scint” scintillation cocktail (Wallac), and counted in a 1450 Microbeta Trilux Liquid Scintillation and Luminescence Counter (Wallac). Specific binding was calculated by subtraction of nonspecific binding (binding detected in the presence of 100-fold excess unlabelled lipid) from total binding.

G2A [2] = molecular target: T1, G2A; test: Calcium assay ([Ca2+]i, Fura-2) in G2A.GFP transfected MCF 10A cells; format: cell-based; conditions: for desensitisation to subsequent stimulation with LPC or SPC (1 μM): pretreatment 5 minutes with LPC 1 μM or SPC 10 μM (b23 prints SPC 1.0 μM); for transient increase in [Ca2+]i: LPC 0.1 μM, SPC 0.1 μM, LPA 1 μM, PAF 0.1 μM, ATP 20 μM
Description: (§1) MCF 10A cells were cultured in specialised glass-bottom dishes (Bioptech, Inc., Butler, Pa.) and loaded with Fura-2/AM ([…]; Molecular Probes) at 37° C. for 30 minutes in HEPES buffered saline (pH 7.4) containing 125 mM NaCl, 5 mM KCl, 1.2 mM MgSO4, 11 mM glucose, 1.8 mM CaCl2, 25 mM HEPES, 0.2% BSA. Loaded cells were washed, placed in HEPES buffeted saline without BSA, and incubated for 30 minutes at ambient temperature ensure dye hydrolysis by cytosolic esterases. Using a dual-wavelength spectrofluorometer (RFK-6002, Photon Technology Int'l, So. Brunswick, N.J.) coupled to an inverted fluorescence microscope (Olympus, IX-70, Lake Success, N.Y.), GFP-positive cells were identified using an excitation wavelength of 488 nm, a dichroic 505 nm long-pass and an emitter bandpass of 535 nm (Chroma Technology, Brattleboro, Vt.). [Ca^2+], measurements were performed on individual GFP-positive cells at excitation wavelengths of 340 nm and 380 nm, and an emission wavelength of 510 nm. Prior to data acquisition, background fluorescence (areas without cells) was measured and automatically subtracted from subsequent measurements. Agonists were diluted in HEPES buffered saline and solution changes accomplished by rapidly aspirating the buffer and replacing it with HEPES buffered saline containing the specific agonist. Fura-2 fluorescence signals (340 nm, 380 nm and the 340/380 ratio) originating from individual GFP-positive cells were continuously monitored at a sampling frequency of 25 Hz and collected using a software package from Photon Technology International (Felix™). Conversion of the 340 nm/380 nm ratio value into [Ca^2+]i was estimated by comparing the cellular fluorescence ratio with ratios acquired using Fura-2 (free acid) in buffers containing known Ca^2+ concentrations. [Ca^2+]i was then calculated as described by Grynkiewicz, et al (Grynkiewicz, G, et al, J Biol Chem, 260: pp3440-3450, 1985). All assays were performed in assay buffers containing 1 mM EGTA to exclude measurement of calcium influx.
(§2) To address whether G2A is a lysophospholipid receptor, we examined signalling events in cells ectopically expressing G2A as functional correlates of receptor activation. […] [Ca^2+]i measurements were performed in MCF 10A cells transfected with plasmids encoding green fluorescent protein (GFP) tagged G2A (pEXV3 G2A.GFP) (Kabarowski, J H S, et al, PNAS, 97: pp12109-12114, 2000) or GFP as described (Yan Xu and Derek S. Damron, Methods in Molecular Medicine, 39: Ovarian Cancer: Methods and Protocols, pp611-619, 2000). […] Similarly, dose-dependent responses of G2A.GFP transfected cells to SPC were observed, with an EC50 of approximately 0.4 μM (FIG. 4B). […] Responses to these agonists were not affected by G2A.GFP expression (FIG. 4A, middle and lower panels).

MCF 10A cells = test: Calcium assay ([Ca2+]i, Fura-2) in parental or pEXV3 GFP transfected MCF 10A cells (control); format: cell-based, human; conditions: SPC or LPC up to 10 μM, LPA 1 μM, PAF 0.1 μM, ATP 20 μM
Description: as §1, §2

G2A.GFP fusion receptor = molecular target: T2, G2A.GFP fusion receptor (Mus musculus, UniProt Q9Z282); test: Internalisation of G2A.GFP in HEK 293 G2A.GFP cells (confocal microscopy); format: cell-based; conditions: lipid 0.1 μM, 2 hours, serum starved HEK 293 G2A.GFP cells
T2 construct: expressed in transfected cells; host or cells: HEK 293 cells infected with amphotropic MSCV G2A.GFP retrovirus
T2 sequence (Q9Z282 1-382): T1 sequence (Q9Z282 1-382)
Description: Agonist dependent receptor internalisation is a feature of GPCRs. G2A.GFP expressing HEK 293 cells (HEK 293 G2A.GFP) were generated by infection with amphotropic MSCV G2A.GFP retroviruses. In serum starved HEK 293 G2A.GFP cells, G2A.GFP is expressed predominantly on the plasma membrane. LPC (0.1 μM), as well as SPC (1 μM), induced internalisation of G2A.GFP in over 90% of cells (FIG. 6). Neither LPA, S-1-P or PAF induced G2A internalisation, which is consistent with LPC acting as a specific ligand for G2A. Treatment of HEK 293 G2A.GFP cells with SPC at low concentrations (0.1 μM) induced receptor internalisation in fewer cells (<50%).
HEK 293 G2A.GFP cells were seeded onto glass coverslips and subsequently serum starved for 16-24 hours prior to treatment with lipids. Two hours following lipid treatment, coverslips were washed with cold PBS and fixed with PBS/4% paraformaldehyde. Subcellular localisation of G2A.GFP was visualised under a confocal fluorescence microscope with a 60× oil immersion lens.

[3] = G2A.GFP-transfected MCF 10A cells
[4] = G2A.GFP transfected MCF 10A cells
[5] = BN 52021 200 μM pretreatment, G2A.GFP-transfected MCF 10A cells
[6] = PTX 100 ng/ml, 16 hours, G2A.GFP-transfected MCF 10A cells

Molecule: CCCCCCCCCCCCCC(=O)OC[C@@H](O)COP(=O)([O-])OCC[N+](C)(C)C [14:0 LPC]
competition for binding of [3H] 16:0 LPC / [3H] SPC to G2A (G2A [1]): not and not able to compete

competition for binding of [3H] 16:0 LPC / [3H] SPC to G2A (G2A [1]): potent competitors
Molecule: CCCCCCCCCCCCCCCC(=O)OC[C@@H](O)COP(=O)([O-])OCC[N+](C)(C)C [16:0 LPC]
desensitisation to subsequent stimulation with LPC or SPC (1 μM) (G2A [2]; [3]): induces desensitisation

Molecule: CCCCCCCCCCCCCCCCCC(=O)OC[C@@H](O)COP(=O)([O-])OCC[N+](C)(C)C [18:0 LPC]
competition for binding of [3H] 16:0 LPC / [3H] SPC to G2A (G2A [1]): potent competitors

Molecule: Nc1ncnc2c1ncn2[C@@H]1O[C@H](COP(=O)(O)OP(=O)(O)OP(=O)(O)O)[C@@H](O)[C@H]1O [ATP]
transient increase in [Ca2+]i (G2A [2]; [4]): transient elevations
[Ca2+]i response in control cells (MCF 10A cells): transient elevations

effect of pretreatment on [Ca2+]i increase induced by LPC (1 μM), SPC (1 μM), LPA (1 μM) or ATP (20 μM) (G2A [2]; [5]): not
effect of pretreatment on [Ca2+]i increase induced by PAF (G2A [2]; [5]): completely blocked
Molecule: CC1C(=O)OC2C(O)C34C5CC(C(C)(C)C)C36C(OC(=O)C6O)OC4(C(=O)O5)C12O (stereo not drawn) [BN 52021]

Molecule: CCCCCCCCCCCCCCCCOC[C@H](COP(=O)([O-])OCC[N+](C)(C)C)OC(C)=O [PAF]
competition for binding of [3H] 16:0 LPC / [3H] SPC to G2A (G2A [1]): not
transient increase in [Ca2+]i (G2A [2]; [4]): transient elevations
[Ca2+]i response in control cells (MCF 10A cells): transient elevations

Molecule: CCCCCCCCCCCCCC(=O)O[C@@H]1[C@@H](C)[C@@]2(O)[C@@H](C=C(CO)C[C@]3(O)C(=O)C(C)=C[C@@H]23)[C@@H]2C(C)(C)[C@]12OC(C)=O [PMA, Phorbol 12-myristate 13-acetate]
effect of pretreatment on [Ca2+]i increases induced by LPA, LPC and SPC (up to 10 μM) (G2A [2]; PMA 100 nM (b23 prints 0.1 mM), 5 minutes, G2A.GFP-transfected MCF 10A cells): abolished; also recorded: inhibits
effect of pretreatment on [Ca2+]i increases induced by PAF (0.1 μM) and ATP (20 μM) (G2A [2]; PMA 100 nM, 5 minutes, G2A.GFP-transfected MCF 10A cells): did not affect

competition for binding of [3H] 16:0 LPC / [3H] SPC to G2A (G2A [1]): not
Molecule: CCCCCCCCCCCCC/C=C/[C@@H](O)[C@@H](N)COP(=O)(O)O [S-1-P]

Molecule: CCCCCCCCCCCCC/C=C/[C@@H](O)[C@@H](N)COP(=O)([O-])OCC[N+](C)(C)C [SPC, sphingosylphosphorylcholine]
Kd (G2A [1]; Scatchard analysis, saturation binding of [3H] 16:0 LPC or [3H] SPC, HEK 293 G2A.GFP cell homogenate, 4° C., read-out: dissociation constant (Kd)): 229 nM
competition for binding of [3H] 16:0 LPC / [3H] SPC to G2A (G2A [1]): competed for binding
maximum binding capacity (G2A [1]; saturation binding, HEK 293 G2A.GFP cell homogenate): ~1,840 fmole/10^5 cells
EC50 (G2A [2]; G2A.GFP transfected MCF 10A cells, 1 mM EGTA in buffer, read-out: EC50 of dose-dependent increase in [Ca2+]i): ~400 nM
transient increase in [Ca2+]i (G2A [2]; [4]): induced a transient increase in [Ca^2+], albeit to a lesser extent; also recorded: induce transient [Ca^2+], increases
desensitisation to subsequent stimulation with LPC or SPC (1 μM) (G2A [2]; [3]): induced homologous and heterologous desensitisation; also recorded: induces desensitisation
cells with internalisation of G2A.GFP (G2A.GFP fusion receptor): < 50%
[Ca2+]i response in control cells (MCF 10A cells): Neither parental or pEXV3 GFP transfected cells responded

Molecule: CCCCCCCCCCCCCCCCOC[C@@H](O)COP(=O)([O-])OCC[N+](C)(C)C [lyso-PAF]
competition for binding of [3H] 16:0 LPC / [3H] SPC to G2A (G2A [1]): not

Molecule: Pertussis Toxin [PTX]
effect of pretreatment on [Ca2+]i increases induced by LPA (1 μM), LPC (0.1 μM-5 μM) and SPC (1 μM-5 μM) (G2A [2]; [6]): inhibits
effect of pretreatment on [Ca2+]i increases induced by PAF (0.1 μM) or ATP (20 μM) (G2A [2]; [6]): not

competition for binding of [3H] 16:0 LPC / [3H] SPC to G2A (G2A [1]): not
transient increase in [Ca2+]i (G2A [2]; [4]): transient elevations
Molecule: lysophosphatidyc acid [LPA]
[Ca2+]i response in control cells (MCF 10A cells): transient elevations

competition for binding of [3H] 16:0 LPC / [3H] SPC to G2A (G2A [1]): not
Molecule: lysophosphatidylinositol [LPI]

competition for binding of [3H] 16:0 LPC / [3H] SPC to G2A (G2A [1]): not
Molecule: sphingomyelin [SM]
